The numbers were not newly measured in patent US8273362B2, “Ophthalmic emulsions containing prostaglandins” (Novagali Pharma S.A., priority 2004, dated 2012), which cites them from elsewhere.

The conditions of data set [1]: at 0.3% w/v.
The conditions of data set [2]: ophthalmic preparations.

Turning to `CCCCC[C@H](O)/C=C/[C@H]1[C@H](O)CC(=O)[C@H]1C/C=C\CCCC(=O)O` [8-isoprostaglandinE2], the Solubility in water entry was “almost insoluble in water”.
As for `CCNC(=O)CCC/C=C\C[C@@H]1[C@@H](/C=C/[C@@H](O)CCc2ccccc2)[C@H](O)C[C@@H]1O` [Bimatoprost, bimatoprost], the Solubility in water entry is “almost insoluble in water”.
In the case of `CC(C)OC(=O)CCC/C=C\C[C@@H]1[C@@H](CC[C@@H](O)CCc2ccccc2)[C@H](O)C[C@@H]1O` [Latanoprost, latanoprost], the Solubility in water entry was “almost insoluble in water”.
Consider `CC(C)OC(=O)CCC/C=C\C[C@@H]1[C@@H](/C=C/[C@@H](O)COc2cccc(C(F)(F)F)c2)[C@H](O)C[C@@H]1O` [Travoprost, travoprost], for which the Solubility in water result is “almost insoluble in water”.
Take `CCCCCCCC/C=C\CCCCCCCCN` [oleylamine]: the “Safety for ocular administration” value in data set [1] is “safe”.
For the molecule `CCCCCCCCCCCCCCCCCCN` [stearylamine], the “Safety for ocular administration” value in data set [1] was “safe”.
On to `CC(C)OC(=O)CCC/C=C\C[C@@H]1[C@@H](/C=C/C(F)(F)COc2ccccc2)[C@H](O)C[C@@H]1O` [tafluprost], for which the Solubility in water result is “almost insoluble in water”.
As for `CCCCCCCC(=O)CC[C@@H]1[C@@H](C/C=C\CCCC(=O)OC(C)C)[C@@H](O)C[C@H]1O` [unoprostone isopropyl], the Solubility in water entry is reported as “almost insoluble in water”.
For the molecule benzalkonium chloride [BAK], the “Toxicity of long term use” value in data set [2] is “important toxicity”.
